Reference: article PMC7932537, “Quantitative profiling of protease specificity” (PLoS Computational Biology, 2021)

What was measured:
[1] = biological target: T1, MMP-2 (Homo sapiens, UniProt P08253); test: K(obs) of individual phage substrates (set of 1369); format: biochemical; details: MMP2
T1 sequence (P08253 110-660): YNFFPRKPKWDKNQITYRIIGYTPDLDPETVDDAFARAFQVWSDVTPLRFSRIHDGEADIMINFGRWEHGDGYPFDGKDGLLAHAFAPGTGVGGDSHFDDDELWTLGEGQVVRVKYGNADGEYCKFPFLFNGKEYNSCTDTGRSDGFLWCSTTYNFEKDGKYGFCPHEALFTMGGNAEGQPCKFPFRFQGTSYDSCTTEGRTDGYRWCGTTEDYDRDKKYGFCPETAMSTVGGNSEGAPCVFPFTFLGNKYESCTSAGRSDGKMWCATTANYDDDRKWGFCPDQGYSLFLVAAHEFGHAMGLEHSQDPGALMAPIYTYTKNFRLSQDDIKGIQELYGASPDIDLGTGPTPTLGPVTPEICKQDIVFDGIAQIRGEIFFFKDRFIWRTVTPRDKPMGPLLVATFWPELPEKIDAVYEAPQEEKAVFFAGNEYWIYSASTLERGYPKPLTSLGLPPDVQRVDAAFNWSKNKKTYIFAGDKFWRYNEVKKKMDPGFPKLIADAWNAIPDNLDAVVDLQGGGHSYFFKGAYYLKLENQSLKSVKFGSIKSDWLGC

[2] = biological target: MMP-9 (Homo sapiens, UniProt P14780); test: as above; format: biochemical; details: MMP9, individual phage substrates, set of 1369 peptides
Chain of MMP-9 (P14780 94-707): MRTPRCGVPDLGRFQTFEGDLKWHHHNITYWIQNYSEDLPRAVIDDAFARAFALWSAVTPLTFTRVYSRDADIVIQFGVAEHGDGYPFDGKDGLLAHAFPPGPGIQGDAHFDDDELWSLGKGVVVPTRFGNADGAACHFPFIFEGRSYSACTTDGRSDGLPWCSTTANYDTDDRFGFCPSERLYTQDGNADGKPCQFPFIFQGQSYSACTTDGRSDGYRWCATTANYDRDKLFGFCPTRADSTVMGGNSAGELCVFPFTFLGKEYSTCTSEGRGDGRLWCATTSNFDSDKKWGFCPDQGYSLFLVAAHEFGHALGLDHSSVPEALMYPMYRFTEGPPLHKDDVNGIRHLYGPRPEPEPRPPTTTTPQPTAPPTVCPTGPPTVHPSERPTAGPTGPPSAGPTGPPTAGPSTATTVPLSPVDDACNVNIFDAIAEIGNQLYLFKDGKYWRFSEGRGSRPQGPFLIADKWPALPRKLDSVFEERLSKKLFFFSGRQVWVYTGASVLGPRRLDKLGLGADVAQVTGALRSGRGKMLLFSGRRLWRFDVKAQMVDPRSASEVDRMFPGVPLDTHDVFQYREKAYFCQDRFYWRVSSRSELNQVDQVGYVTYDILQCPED

[3] = individual phage substrates, set of 1369 peptides, cleavage position marked by '-' in the sequence
[4] = '-' marks the cleavage position (P1-P1')
[5] = individual phage substrate from the set of 1369 peptides, cleavage position marked by the dash in the sequence
[6] = dash in sequence marks cleavage position

Substance	Kobs [1, 3]	Kobs [2, 4]	Kobs [1, 5]	Kobs [2, 6]
GSPLS-WRTAS	7815.03 M⁻¹ s⁻¹	6396.07 M⁻¹ s⁻¹		
SGVYR-LELTA			113.394 M⁻¹ s⁻¹	0 M⁻¹ s⁻¹
SGWLN-LRSTA			1154.21 M⁻¹ s⁻¹	726.013 M⁻¹ s⁻¹
RTPLM-LTASG	12792.1 M⁻¹ s⁻¹	12792.1 M⁻¹ s⁻¹		
SGYRF-MTLTA	0 M⁻¹ s⁻¹	0 M⁻¹ s⁻¹		
GFAIS-MVTAS	113.394 M⁻¹ s⁻¹	84.609 M⁻¹ s⁻¹		
QSPVQ-LTASG	12792.1 M⁻¹ s⁻¹	4205.91 M⁻¹ s⁻¹		
GVLMR-LNTAS	0 M⁻¹ s⁻¹	0 M⁻¹ s⁻¹		
GKPNR-LVTAS			2761.81 M⁻¹ s⁻¹	1239.69 M⁻¹ s⁻¹
SGVLS-LRYTA	1154.21 M⁻¹ s⁻¹	2837.92 M⁻¹ s⁻¹		
SGYAG-LRQTA	231.616 M⁻¹ s⁻¹	0 M⁻¹ s⁻¹		
GRPHP-LSTAS	12792.1 M⁻¹ s⁻¹	8941.32 M⁻¹ s⁻¹		
GTIFR-LTASG	551.253 M⁻¹ s⁻¹	619.843 M⁻¹ s⁻¹		
SGANS-LVATA	1327.88 M⁻¹ s⁻¹	27.918 M⁻¹ s⁻¹		
GTLLD-LITAS	0 M⁻¹ s⁻¹	0 M⁻¹ s⁻¹		
GGSGA-LTMPL	0 M⁻¹ s⁻¹	171.876 M⁻¹ s⁻¹		

Substance	Kobs [1, 3]	Kobs [2, 4]	Kobs [1, 5]	Kobs [2, 6]
QRANS-ITASG	551.253 M⁻¹ s⁻¹	0 M⁻¹ s⁻¹		
AMAHS-LTASG			7015.91 M⁻¹ s⁻¹	2996.69 M⁻¹ s⁻¹
FMMGN-MTASG	12792.1 M⁻¹ s⁻¹	84.609 M⁻¹ s⁻¹		
GSGSD-LKSKT			12792.1 M⁻¹ s⁻¹	355.093 M⁻¹ s⁻¹
GGSGA-LREKV			201.585 M⁻¹ s⁻¹	292.668 M⁻¹ s⁻¹
YSALP-MTASG			1561.44 M⁻¹ s⁻¹	3964.21 M⁻¹ s⁻¹
GGSGR-LMYER			0 M⁻¹ s⁻¹	0 M⁻¹ s⁻¹
SRVLP-LTASG			4613.14 M⁻¹ s⁻¹	1711.63 M⁻¹ s⁻¹
SPALD-MTASG			0 M⁻¹ s⁻¹	231.616 M⁻¹ s⁻¹
WHFGA-LTASG	12792.1 M⁻¹ s⁻¹	0 M⁻¹ s⁻¹		
RNLAS-LTASG	7815.03 M⁻¹ s⁻¹	142.481 M⁻¹ s⁻¹		
SGPMS-LLDTA			2996.69 M⁻¹ s⁻¹	8941.32 M⁻¹ s⁻¹
RRPAS-MTASG	5090.5 M⁻¹ s⁻¹	7015.91 M⁻¹ s⁻¹		
GQPAH-LSTAS			10866.7 M⁻¹ s⁻¹	2761.81 M⁻¹ s⁻¹
RKALN-LTASG	4613.14 M⁻¹ s⁻¹	5667.28 M⁻¹ s⁻¹		

Now from value to substance:

Kobs [1, 3]	Kobs [2, 4]	Kobs [1, 5]	Kobs [2, 6]	Substance
201.585 M⁻¹ s⁻¹	261.974 M⁻¹ s⁻¹			GYGLH-LRTAS
7386.83 M⁻¹ s⁻¹	8321.48 M⁻¹ s⁻¹			VWGRA-LTASG
10866.7 M⁻¹ s⁻¹	8321.48 M⁻¹ s⁻¹			GKVRN-LTTAS
12792.1 M⁻¹ s⁻¹	10866.7 M⁻¹ s⁻¹			VIVAA-LTASG
1196.62 M⁻¹ s⁻¹	484.315 M⁻¹ s⁻¹			GSGNF-LRKMT
0 M⁻¹ s⁻¹	0 M⁻¹ s⁻¹			SGNLA-LKQTA
		7015.91 M⁻¹ s⁻¹	0 M⁻¹ s⁻¹	HLFQW-LTASG
		551.253 M⁻¹ s⁻¹	0 M⁻¹ s⁻¹	GRASR-LVTAS
0 M⁻¹ s⁻¹	27.918 M⁻¹ s⁻¹			EKVML-MTASG
		1154.21 M⁻¹ s⁻¹	292.668 M⁻¹ s⁻¹	GWGDR-LTTAS
0 M⁻¹ s⁻¹	0 M⁻¹ s⁻¹			GVMMQ-LVTAS
912.511 M⁻¹ s⁻¹	726.013 M⁻¹ s⁻¹			NFGRP-LTASG
12792.1 M⁻¹ s⁻¹	12792.1 M⁻¹ s⁻¹			TAPIN-LTASG
231.616 M⁻¹ s⁻¹	142.481 M⁻¹ s⁻¹			GGSGN-LIYWN
		7015.91 M⁻¹ s⁻¹	1373.05 M⁻¹ s⁻¹	YYASH-LTASG
